Laboratory results taken from ChEMBL document CHEMBL3044789, “Comparing weed and crop seedling response to pre-emergence pendimethalin application in Corchorus olitorius and Abelmoschus esculentus” (Crop Prot, 2006).

What was measured:
Calopogonium mucunoides [1] = assay: Herbicidal activity against Calopogonium mucunoides in Corchorus olitorius plots assessed as weed cover at 0.66 kg a.i/ha after 4 weeks (reference value: 20.1+/- 0.57 %); format: functional
Ageratum conyzoides [2] = assay: Herbicidal activity against Ageratum conyzoides in Abelmoschus esculentus plots assessed as weed cover at 1.32 kg a.i/ha after 2 weeks (reference value: 63.5 +/- 0.29 %); format: functional
Synedrella nodiflora [3] = assay: Herbicidal activity against Synedrella nodiflora in Abelmoschus esculentus plots assessed as minor weed growth at 1.32 kg a.i/ha after 2 weeks; format: functional
Calopogonium mucunoides [4] = assay: Herbicidal activity against Calopogonium mucunoides in Corchorus olitorius plots assessed as minor weed growth at 0.66 kg a.i/ha after 2 weeks; format: functional
Euphorbia heterophylla [5] = assay: Herbicidal activity against Euphorbia heterophylla in Corchorus olitorius plots assessed as major weed growth at 0.99 kg a.i/ha after 2 weeks; format: functional
Synedrella nodiflora [6] = assay: Herbicidal activity against Synedrella nodiflora in Corchorus olitorius plots assessed as minor weed growth at 0.66 kg a.i/ha after 2 weeks; format: functional
Synedrella nodiflora [7] = assay: Herbicidal activity against Synedrella nodiflora in Abelmoschus esculentus plots assessed as weed cover at 1.32 kg a.i/ha after 7 weeks (reference value: 14.7 +/- 0.46 %); format: functional
Calopogonium mucunoides [8] = assay: Herbicidal activity against Calopogonium mucunoides in Abelmoschus esculentus plots assessed as weed cover at 0.99 kg a.i/ha after 7 weeks (reference value: 14.7 +/- 0.46 %); format: functional
Euphorbia heterophylla [9] = assay: Herbicidal activity against Euphorbia heterophylla in Abelmoschus esculentus plots assessed as weed cover at 0.99 kg a.i/ha after 7 weeks (reference value: 14.7 +/- 0.46 %); format: functional
Calopogonium mucunoides [10] = assay: Herbicidal activity against Calopogonium mucunoides in Abelmoschus esculentus plots assessed as weed cover at 0.66 kg a.i/ha after 7 weeks (reference value: 14.7 +/- 0.46 %); format: functional
Euphorbia heterophylla [11] = assay: Herbicidal activity against Euphorbia heterophylla in Abelmoschus esculentus plots assessed as weed cover at 0.66 kg a.i/ha after 7 weeks (reference value: 14.7 +/- 0.46 %); format: functional
Ageratum conyzoides [12] = assay: Herbicidal activity against Ageratum conyzoides in Corchorus olitorius plots assessed as weed recovery at 1.32 kg a.i/ha after 2 weeks (reference value: 78.3 +/- 0.74 %); format: functional
Synedrella nodiflora [13] = assay: Herbicidal activity against Synedrella nodiflora in Abelmoschus esculentus plots assessed as weed cover at 0.66 kg a.i/ha after 2 weeks (reference value: 63.5 +/- 0.29 %); format: functional
Euphorbia heterophylla [14] = assay: Herbicidal activity against Euphorbia heterophylla in Abelmoschus esculentus plots assessed as weed cover at 0.99 kg a.i/ha after 2 weeks (reference value: 63.5 +/- 0.29 %); format: functional
Synedrella nodiflora [15] = assay: Herbicidal activity against Synedrella nodiflora in Abelmoschus esculentus plots assessed as weed cover at 0.33 kg a.i/ha after 7 weeks (reference value: 14.7 +/- 0.46 %); format: functional
Ageratum conyzoides [16] = assay: Herbicidal activity against Ageratum conyzoides in Abelmoschus esculentus plots assessed as weed cover at 0.33 kg a.i/ha after 7 weeks (reference value: 14.7 +/- 0.46 %); format: functional
Abelmoschus esculentus [17] = assay: Phytotoxicity in Abelmoschus esculentus assessed as shoot length at 0.66 kg a.i/ha treated to soil after 7 weeks (reference value: 8.5 +/- 0.34 mm); format: organism-based; conditions: in vivo, other, 1176 h
Abelmoschus esculentus [18] = assay: Phytotoxicity in Abelmoschus esculentus assessed as seedling emergence at 0.33 kg a.i/ha treated to soil after 7 weeks (reference value: 95 +/- 0.05 %); format: organism-based; conditions: in vivo, other, 1176 h
Corchorus olitorius [19] = assay: Phytotoxicity in Corchorus olitorius assessed as root length at 0.99 kg a.i/ha applied as solution after 7 weeks (reference value: 14.3 +/- 1.06 mm); format: organism-based; conditions: in vivo, other, 1176 h
Abelmoschus esculentus [20] = assay: Phytotoxicity in Abelmoschus esculentus assessed as root length at 0.33 kg a.i/ha treated to soil after 7 weeks (reference value: 2.9 +/- 0.45 mm); format: organism-based; conditions: in vivo, other, 1176 h
Corchorus olitorius [21] = assay: Phytotoxicity in Corchorus olitorius assessed as root length at 0.99 kg a.i/ha treated to soil after 7 weeks (reference value: 16.9 +/- 0.09 mm); format: organism-based; conditions: in vivo, other, 1176 h
Corchorus olitorius [22] = assay: Phytotoxicity in Corchorus olitorius assessed as root length at 0.66 kg a.i/ha treated to soil after 7 weeks (reference value: 16.9 +/- 0.09 mm); format: organism-based; conditions: in vivo, other, 1176 h
Abelmoschus esculentus [23] = assay: Phytotoxicity in Abelmoschus esculentus assessed as seedling injury at 0.33 kg a.i/ha applied as solution after 7 weeks relative to control; format: organism-based; conditions: in vivo, other, 1176 h
Abelmoschus esculentus [24] = assay: Phytotoxicity in Abelmoschus esculentus assessed as root length at 0.33 kg a.i/ha applied as solution after 7 weeks (reference value: 23 +/- 0.34 mm); format: organism-based; conditions: in vivo, other, 1176 h
Euphorbia heterophylla [25] = assay: Herbicidal activity against Euphorbia heterophylla in Corchorus olitorius plots assessed as weed cover at 0.66 kg a.i/ha after 2 weeks (reference value: 81.7 +/- 0.43 %); format: functional
Chromolaena odorata [26] = assay: Herbicidal activity against Chromolaena odorata in Corchorus olitorius plots assessed as weed cover at 0.33 kg a.i/ha after 2 weeks (reference value: 81.7 +/- 0.43 %); format: functional
Calopogonium mucunoides [27] = assay: Herbicidal activity against Calopogonium mucunoides in Corchorus olitorius plots assessed as weed cover at 0.33 kg a.i/ha after 2 weeks (reference value: 81.7 +/- 0.43 %); format: functional
Calopogonium mucunoides [28] = assay: Herbicidal activity against Calopogonium mucunoides in Corchorus olitorius plots assessed as weed recovery at 0.33 kg a.i/ha after 2 weeks (reference value: 78.3 +/- 0.74 %); format: functional
Abelmoschus esculentus [29] = assay: Phytotoxicity in Abelmoschus esculentus assessed as shoot length at 0.99 kg a.i/ha applied as solution after 7 weeks (reference value: 28.7 +/- 0.34 mm); format: organism-based; conditions: in vivo, other, 1176 h
Commelina diffusa = assay: Herbicidal activity against Commelina diffusa in Corchorus olitorius plots assessed as weed cover at 0.66 kg a.i/ha after 4 weeks (reference value: 20.1+/- 0.57 %); format: functional
Asteraceae = assay: Herbicidal activity against Aspilia africana in Corchorus olitorius plots assessed as weed cover at 0.66 kg a.i/ha after 4 weeks (reference value: 20.1+/- 0.57 %); format: functional
Corchorus olitorius [30] = assay: Phytotoxicity in Corchorus olitorius assessed as root length at 0.33 kg a.i/ha treated to soil after 7 weeks (reference value: 16.9 +/- 0.09 mm); format: organism-based; conditions: in vivo, other, 1176 h
Corchorus olitorius [31] = assay: Phytotoxicity in Corchorus olitorius assessed as seedling emergence at 0.66 kg a.i/ha treated to soil after 7 weeks (reference value: 95 +/- 0.05 %); format: organism-based; conditions: in vivo, other, 1176 h
Euphorbia heterophylla [32] = assay: Herbicidal activity against Euphorbia heterophylla in Abelmoschus esculentus plots assessed as weed recovery at 0.99 kg a.i/ha after 2 weeks (reference value: 60.1 +/- 0.46 %); format: functional
Calopogonium mucunoides [33] = assay: Herbicidal activity against Calopogonium mucunoides in Abelmoschus esculentus plots assessed as weed recovery at 0.66 kg a.i/ha after 2 weeks (reference value: 60.1 +/- 0.46 %); format: functional
Chromolaena odorata [34] = assay: Herbicidal activity against Chromolaena odorata in Corchorus olitorius plots assessed as weed cover at 0.33 kg a.i/ha after 4 weeks (reference value: 20.1+/- 0.57 %); format: functional

With `CCC(CC)Nc1c([N+](=O)[O-])cc(C)c(C)c1[N+](=O)[O-]` [PENDIMETHALIN] the Activity (Calopogonium mucunoides [1]) was 63.3%, the Activity (Ageratum conyzoides [2]) was 45% and the Activity (Synedrella nodiflora [3]) was 1 /m2. For the same compound, the Activity (Calopogonium mucunoides [4]) was 1 /m2, the Activity (Euphorbia heterophylla [5]) was 31 /m2 and the Activity (Synedrella nodiflora [6]) was 1 /m2. It also gave an Activity (Synedrella nodiflora [7]) of 82.4%, an Activity (Calopogonium mucunoides [8]) of 83.9% and an Activity (Euphorbia heterophylla [9]) of 83.9%. The Activity (Calopogonium mucunoides [10]) was 90%, the Activity (Euphorbia heterophylla [11]) was 90% and the Activity (Ageratum conyzoides [12]) was 13.3%. For the same compound, the Activity (Synedrella nodiflora [13]) was 50.8%, the Activity (Euphorbia heterophylla [14]) was 47.9% and the Activity (Synedrella nodiflora [15]) was 90%. The Activity (Ageratum conyzoides [16]) was 90%, the Activity (Abelmoschus esculentus [17]) was 5.8 mm and the Activity (Abelmoschus esculentus [18]) was 85%. It also gave an Activity (Corchorus olitorius [19]) of 2.5 mm, an Activity (Abelmoschus esculentus [20]) of 3 mm and an Activity (Corchorus olitorius [21]) of 16.4 mm. It also gave an Activity (Corchorus olitorius [22]) of 13.7 mm, an Activity (Abelmoschus esculentus [23]) of 29.9% and an Activity (Abelmoschus esculentus [24]) of 11.7 mm. It also gave an Activity (Euphorbia heterophylla [25]) of 51.7%, an Activity (Chromolaena odorata [26]) of 63.3% and an Activity (Calopogonium mucunoides [27]) of 63.3%. For the same compound, the Activity (Calopogonium mucunoides [28]) was 31.7%, the Activity (Abelmoschus esculentus [29]) was 14.7 mm and the Activity (Commelina diffusa) was 63.3%. The Activity (Asteraceae) was 63.3%, the Activity (Corchorus olitorius [30]) was 14.2 mm and the Activity (Corchorus olitorius [31]) was 83.3%. It also gave an Activity (Euphorbia heterophylla [32]) of 36.2%, an Activity (Calopogonium mucunoides [33]) of 47.9% and an Activity (Chromolaena odorata [34]) of 73.3%.
